Measurements as given in patent US8178579B2, “Dioxanes and uses thereof” (President and Fellows of Harvard College, priority 2001, dated 2012).

Target: T1, HDAC6F H216A mutant (Homo sapiens, UniProt Q9UBN7, H216A)
T1 construct: made in house; host or cells: TAg Jurkat cells, transient transfection, anti-FLAG M2 immunoprecipitation
T1 sequence (Q9UBN7 1-1215 H216A): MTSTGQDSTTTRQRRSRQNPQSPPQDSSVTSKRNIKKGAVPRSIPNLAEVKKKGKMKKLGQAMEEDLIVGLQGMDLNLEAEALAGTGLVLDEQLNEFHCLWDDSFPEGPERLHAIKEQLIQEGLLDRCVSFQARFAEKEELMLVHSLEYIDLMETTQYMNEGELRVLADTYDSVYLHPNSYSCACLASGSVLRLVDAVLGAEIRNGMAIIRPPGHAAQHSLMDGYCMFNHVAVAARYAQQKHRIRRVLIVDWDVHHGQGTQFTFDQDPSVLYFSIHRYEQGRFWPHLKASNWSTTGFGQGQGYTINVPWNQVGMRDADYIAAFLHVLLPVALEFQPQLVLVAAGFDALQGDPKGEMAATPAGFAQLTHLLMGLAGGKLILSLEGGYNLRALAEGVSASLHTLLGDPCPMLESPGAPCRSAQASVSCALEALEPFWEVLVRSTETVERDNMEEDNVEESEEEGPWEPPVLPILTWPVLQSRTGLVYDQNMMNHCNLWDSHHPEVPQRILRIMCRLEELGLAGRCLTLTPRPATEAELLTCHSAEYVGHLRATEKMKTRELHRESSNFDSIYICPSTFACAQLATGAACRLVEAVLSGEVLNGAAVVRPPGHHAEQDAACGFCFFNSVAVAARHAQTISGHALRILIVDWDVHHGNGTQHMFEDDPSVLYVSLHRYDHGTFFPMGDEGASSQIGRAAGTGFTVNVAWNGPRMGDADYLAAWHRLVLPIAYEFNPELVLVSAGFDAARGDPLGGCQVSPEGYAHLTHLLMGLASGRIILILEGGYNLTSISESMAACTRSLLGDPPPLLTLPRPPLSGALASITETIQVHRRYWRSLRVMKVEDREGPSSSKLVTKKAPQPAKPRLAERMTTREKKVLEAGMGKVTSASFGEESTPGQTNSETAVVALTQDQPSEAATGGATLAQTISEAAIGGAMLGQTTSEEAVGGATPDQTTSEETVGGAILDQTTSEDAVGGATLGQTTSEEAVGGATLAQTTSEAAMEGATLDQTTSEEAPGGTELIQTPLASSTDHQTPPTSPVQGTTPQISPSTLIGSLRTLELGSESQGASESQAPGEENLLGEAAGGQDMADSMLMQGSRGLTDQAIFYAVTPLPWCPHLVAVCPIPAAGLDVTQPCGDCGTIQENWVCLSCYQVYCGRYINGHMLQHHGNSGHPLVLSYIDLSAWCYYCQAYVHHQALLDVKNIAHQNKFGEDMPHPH
Test: in vitro tubulin deacetylase (TDAC) assay, HDAC6F H216A mutant
Type: biochemical
Conditions: acetylated tubulin as substrate
Protocol: FLAG-tagged HDAC pBJ5 constructs were transiently transfected by electroporation with 5 μg DNA for expression of recombinant proteins (C. M. Grozinger, C. A. Hassig and S. L. Schreiber, Proc. Natl. Acad. Sci. USA, 27, 4868 (1999); and C. A. Hassig et al., Proc. Natl. Acad. Sci. USA 95, 3519 (1998)]. Cells were mock transfected without DNA or with a non-FLAG-tagged pCMV-LacZ construct as a negative control. Forty-eight hours after transfection recombinant proteins were immunoprecipitated using anti-FLAG M2 agarose affinity gel beads as described [C. A. Hassig et al., Proc. Natl. Acad. Sci. USA 95, 3519 (1998)]. Western blotting using anti-acetylated α-tubulin (1:1000) anti-tubulin (1:1000), and anti-acetylated (K9, K14) histone H3 (1:1000) antibodies was performed using standard methods (K. M. Koeller et al., Chemistry & Biology, 10 (5) (2003) pp. 397-410). […]
[^3H]Acetate-incorporated histones were isolated from butyrate-treated HeLa cells as described [J. Taunton, C. […] Immunoprecipitates were incubated with acetylated histones and HDAC activity determined by scintillation counting as described [J. Taunton, C. […] After centrifugation, the supernatant (diluted to 0.4 μg tubulin) and α-FLAG M2 agarose affinity gel beads were analyzed by western blotting with an anti-FLAG M2 antibody (1:1750) to ensure equal protein levels.

## CC(/C=C/C(=O)NO)=C\[C@@H](C)C(=O)c1ccc(N(C)C)cc1 [TSA, trichostatin A, reference compound]
  inhibition of TDAC activity of HDAC6F H216A mutant: exhibited TDAC activity that was inhibited by tubacin and TSA

## O=C(CCCCCCC(=O)Nc1ccc([C@@H]2OC(c3ccc(CO)cc3)C[C@H](CSc3nc(-c4ccccc4)c(-c4ccccc4)o3)O2)cc1)NO (some centres unmarked) [tubacin]
  inhibition of TDAC activity of HDAC6F H216A mutant: exhibited TDAC activity that was inhibited by tubacin and TSA
